Laboratory results from publication PMC4884932, “Selective brain penetrable Nurr1 transactivator for treating Parkinson's disease” (Oncotarget, 2016).

How the values were obtained:
[1] = molecular target: T1, RXRα (Homo sapiens, UniProt P19793); assay: Receptor transactivation assay, RXRα (CV-1 cells, rCRBPII/RXRE-tk-Luc reporter); assay type: cell-based; conditions: 20h
T1 sequence (P19793 1-462): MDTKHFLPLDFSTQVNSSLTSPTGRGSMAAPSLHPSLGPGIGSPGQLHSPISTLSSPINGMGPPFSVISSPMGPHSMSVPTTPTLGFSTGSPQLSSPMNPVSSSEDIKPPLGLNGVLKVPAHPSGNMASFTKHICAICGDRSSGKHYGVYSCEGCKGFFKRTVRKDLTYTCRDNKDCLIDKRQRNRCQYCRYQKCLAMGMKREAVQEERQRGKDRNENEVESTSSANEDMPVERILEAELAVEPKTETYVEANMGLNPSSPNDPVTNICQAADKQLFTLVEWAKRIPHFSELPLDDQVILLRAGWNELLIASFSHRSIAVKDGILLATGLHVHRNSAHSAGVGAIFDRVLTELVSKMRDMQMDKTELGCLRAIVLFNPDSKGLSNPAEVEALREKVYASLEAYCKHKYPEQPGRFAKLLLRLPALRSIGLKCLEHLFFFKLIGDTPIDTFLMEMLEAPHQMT
Description: For RXR: CV-1 cells were transfected with rCRBPII/RXRE-tk-Luc reporter gene and an expression vector for RXRα, β, or γ. For RAR: CV-1 cells were transfected with ERE-tk-Luc reporter gene and an expression vector for the appropriate ER-RARα, β, or γ. ER-RARs are fusion proteins, composed of the estrogen receptor (ER) DNA binding domain fused to the ligand binding domain of RARs. This system eliminates interference by the low level of endogenous RAR activity in CV1 cells as the readout comes only from the transfected ER-RAR. For PPARγ: CV-1 cells were transfected with 3x(rAOX/DR1)-tk-Luc reporter gene and an expression vector for PPARγ; for FXR: CV-1 cells were transfected with 3x(IBABP/IR1)-tk-Luc reporter gene and vectors for FXR and RXRα; for LXR: CV-1 cells were transfected with 3x(PLTP/LXRE)-tk-Luc reporter gene with vectors for LXRα or LXRβ. For Nurr1: COS7 cells were transfected with 3xNBRE-tk-luc reporter gene and full length Nurr1 with or without full-length RXRα plasmid. […] Luciferase data were normalized to co-transfected β-gal activity. Luciferase activity is expressed as percent of maximal activity obtained using specific agonists 9-cis-retinoic acid (RXR), retinoic acid (RAR), rosiglitazone (PPARγ), GW4064 (FXR), T0901317 (LXR).

[2] = molecular target: LXRβ (Homo sapiens, UniProt P55055); assay: Receptor transactivation assay, LXRβ (CV-1 cells); assay type: cell-based; conditions: at physiological concentrations
Description: For PPARγ: CV-1 cells were transfected with 3x(rAOX/DR1)-tk-Luc reporter gene and an expression vector for PPARγ; for FXR: CV-1 cells were transfected with 3x(IBABP/IR1)-tk-Luc reporter gene and vectors for FXR and RXRα; for LXR: CV-1 cells were transfected with 3x(PLTP/LXRE)-tk-Luc reporter gene with vectors for LXRα or LXRβ. […] Luciferase data were normalized to co-transfected β-gal activity. Luciferase activity is expressed as percent of maximal activity obtained using specific agonists 9-cis-retinoic acid (RXR), retinoic acid (RAR), rosiglitazone (PPARγ), GW4064 (FXR), T0901317 (LXR).

[3] = test system: primary VMB neurons; assay: Nurr1 downstream gene expression in VMB neurons (real time PCR); assay type: cell-based, mouse; conditions: 1nM, 16 hours
Protocol: Ventral midbrain (VMB) from E13.5-14.5 C57BL/6 mouse embryos were dissected, triturated and plated on poly-D-lysine coated 12 well plates or glass coverslips with the serum-free chemically-defined Neurobasal medium, supplemented with 2% B27, 0.5mM L-glutamine, 50I.U./ml penicillin and 50μg/ml streptomycin (Gibco-BRL). […] For each time point, cells were washed once with phosphate buffered saline and fixed with 4% paraformaldehyde for TH immunofluorescent staining. For cell counting, 10 frames were randomly captured from each well using a Leica fluorescent microscope and a minimum of four replicates for each dose and each time point were analyzed for each experiment.
Total RNA from VMB neurons or rat substantia nigra were isolated using the RNeasy Mini Kit from Qiagen (Valencia, CA) and 1μg of total RNA was reverse transcribed using SuperScript III first-strand synthesis supermix for qRT-PCR from Invitrogen (Carlsbad, CA) according to the manufacturer's instruction. Quantitative RT-PCR was performed using Maxima SYBR Green master mix (Fermentas) in ABI Prism 7900HT in four replicates with primers amplifying the target genes. Expression level of actin was used as an internal control. Data were normalized using the 2^−ΔΔCt method. Levels of target gene mRNAs were expressed relative to those in vehicle control groups and plotted in GraphPad Prism.

[4] = test system: 6-OHDA lesioned rats; assay: DAT and TH content in the striatum by Western blot, 6-OHDA lesioned rats; assay type: in vivo, rat; conditions: 10mg/kg/day gavage for three weeks
Protocol: All surgical procedures were performed under general anesthesia with ketamine/xylazine. 2μl 6-OHDA (20 mg/ml in 0.02% ascorbic acid) was stereotaxically injected into the right striatum of male SD rats. Lesion coordinates were set according to bregma and dura in mm: ML-3.7; AP-1.0; DV-5.5. The injection rate was 2μl/5 min and the injecting needle was left for 2 minutes after injection to avoid back flow. Apomorphine-induced rotations (see below) were assessed three days post-lesion and rats with ≥ 30 full contralateral rotation/30 minutes were included in the study.
Rats were randomly grouped into vehicle control group (n = 11) and drug treatment group (n = 10). […] The control group received DMSO/corn oil (vehicle). The treatment continued for three weeks.
Striatum samples were homogenized and boiled in SDS-PAGE sample buffer and separated onto 10% Tris-glycine gels. Western blotting was performed using anti-TH or anti-DAT (Millipore, Billerica, MA), as primary antibodies and enhanced chemiluminescence signals were quantified and normalized with β-actin.

Chain of LXRβ (P55055 whole entry, one chain of several): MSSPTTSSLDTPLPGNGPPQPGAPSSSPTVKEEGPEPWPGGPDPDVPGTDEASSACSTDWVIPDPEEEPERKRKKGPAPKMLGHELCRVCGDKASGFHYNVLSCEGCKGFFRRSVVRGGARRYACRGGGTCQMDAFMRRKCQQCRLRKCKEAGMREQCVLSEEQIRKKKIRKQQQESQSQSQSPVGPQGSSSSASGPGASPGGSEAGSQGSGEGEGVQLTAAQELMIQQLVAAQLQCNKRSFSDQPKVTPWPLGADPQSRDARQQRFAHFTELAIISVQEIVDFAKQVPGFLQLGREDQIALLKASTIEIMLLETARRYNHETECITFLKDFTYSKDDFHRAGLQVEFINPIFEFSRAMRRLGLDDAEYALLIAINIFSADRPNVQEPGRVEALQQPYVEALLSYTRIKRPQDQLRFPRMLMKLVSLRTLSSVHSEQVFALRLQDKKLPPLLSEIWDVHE

`CC(/C=C/[C@@H]1C[C@]1(C)c1ccc2c(c1)C(C)(C)CCC2(C)C)=C\C(=O)O` [IRX4204] was tested, and the “concentration that fully activates RXRα” value [1] was 1 nM, the “concentration that partially activates RXRα” value [1] was 0.1 nM and the “activation of RXR heterodimer of LXRβ” value [2] was “does not activate”. The “expression of dopa-decarboxylase (DDC)” value [3] was “significantly increased”, the “expression of dopamine transporter (DAT)” value [3] was “significantly increased” and the “DAT content in the lesioned striatum versus non-lesioned side” value [4] was “almost identical to those in the non-lesioned side”. For the same compound, the “TH content in the lesioned striatum versus non-lesioned side” value [4] was “almost identical to those in the non-lesioned side”.
